Data on 23 molecules can be found in patent US8283474B2, “Azabicyclo (3.1.0) hexane derivatives useful as modulators of dopamine D3 receptors” (Glaxo Group Limited, priority 2004, dated 2012).

Where only a bound is given, the exact number is not on record here.

T1 sequence (P35462 whole entry): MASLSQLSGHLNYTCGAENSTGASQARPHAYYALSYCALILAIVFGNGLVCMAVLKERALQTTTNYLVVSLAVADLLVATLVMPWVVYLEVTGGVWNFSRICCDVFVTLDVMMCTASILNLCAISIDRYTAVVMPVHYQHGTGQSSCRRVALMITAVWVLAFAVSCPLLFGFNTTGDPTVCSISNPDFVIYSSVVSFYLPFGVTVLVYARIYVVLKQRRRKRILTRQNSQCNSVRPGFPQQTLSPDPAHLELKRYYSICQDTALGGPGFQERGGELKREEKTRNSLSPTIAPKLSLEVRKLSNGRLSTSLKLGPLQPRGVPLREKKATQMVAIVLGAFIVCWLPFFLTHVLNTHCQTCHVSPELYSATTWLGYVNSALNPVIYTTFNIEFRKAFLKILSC

The experiment concerns the target T1, dopamine D3 receptor (Homo sapiens, UniProt P35462).
T1 construct: expressed in transfected cells; membrane preparation
The experiment is described as follows: GTPγS scintillation proximity assay (GTPγS-SPA), antagonist format, CHO_D3 membranes. The class given is biochemical. The following applies: difference in functional pKi at D3 versus the opposite enantiomer of the same Example. The procedure:
Functional potency and intrinsic activity of compounds of this invention can be measured by the following GTPγS scintillation proximity assay (GTPγS-SPA). Cells used in the study are Chinese Hamster Ovary (CHO) Cells.
Cell membranes are prepared as follows. Cell pellets are resuspended in 10 volumes of 50 mM HEPES, 1 mM EDTA pH 7.4, using KOH. On the day the following proteases are added to the buffer just prior to giving the homogenisation buffer. 10^−6M Leupeptin(Sigma L2884)−5000×stock=5 mg/ml in buffer 25 ug/ml Bacitracin(Sigma B0125)−1000×stock=25 mg/ml in buffer 1 mM PMSF−1000×stock=17 mg/ml in 100% ethanol 2×10^−6M Pepstain A−1000×stock=2 mM in 100% DMSO
The cells are homogenised by 2×15 second bursts in a 1 litre Glass Waring blender in a class two biohazard cabinet. The resulting suspension is spun at 500 g for 20 mins (Beckman T21 centrifuge: 1550 rpm). The supernatant is withdrawn with a 25 ml pipette, aliquotted into pre-chilled centrifuge tubes and spun at 48,000 g to pellet membrane fragments (Beckman T1270: 23,000 rpm for 30 mins). The final 48,000 g pellet is resuspended in Homogenisation Buffer, (4× the volume of the original cell pellet). The 48,000 g pellet is resuspended by vortexing for 5 seconds and homogenized in a dounce homogenizer 10-15 stokes. The prep is distributed into appropriate sized aliquots, (200-1000 ul), in polypropylene tubes and store at −80° C. Protein content in the membrane preparations is evaluated with the Bradford protein assay.
The final top concentration of test drug is 3 uM in the assay and 11 points serial dilution curves 1:4 in 100% DMSO are carried out using a Biomek FX. The test drug at 1% total assay volume (TAV) is added to a solid, white, 384 well assay plate. 50% TAV of precoupled (for 90 mins at 4° C.) membranes, 5 μg/well, and Wheatgerm Agglutinin Polystyrene Scintillation Proximity Assay beads (RPNQ0260, Amersham), 0.25 mg/well, in 20 mM HEPES pH 7.4, 100 mM NaCl, 10 mM MgCl2, 60 μg/ml saponin and 30 μM GDP is added. The third addition was a 20% TAV addition of either buffer, (agonist format) or EC80 final assay concentration of agonist, Quinelorane, prepared in assay buffer (antagonist format). The assay was started by the addition of 29% TAV of GTPγ[^35S] 0.38 nM final (37 MBq/ml, 1160 Ci/mmol, Amersham). After all additions assay plates are spun down for 1 min at 1,000 rpm. Assay plates are counted on a Viewlux, 613/55 filter, for 5 min., between 2-6 hours after the final addition.
The effect of the test drug over the basal generates EC50 value by an iterative least squares curve fitting programme, expressed in the table as pEC50 (i.e. −log EC50). The ratio between the maximal effect of the test drug and the maximal effect of full agonist, Quinelorane, generates the Intrinsic Activity (IA) value (i.e. IA=1 full agonist, IA<1 partial agonist). fpKi values of test drug are calculated from the IC50 generated by “antagonist format” experiment, using Cheng & Prusoff equation: fKi=IC50/1+([A]/EC50) where: [A] is the concentration of the agonist […] in the assay and EC50 is the 5-HT EC50 value obtained in the same experiment. fpKi is defined as −log fKi.
A general note: Scintillation proximity formats need no separation of bound from free tracer.
`COc1ccc([C@]23C[C@H]2CN(CCCSc2nnc(-c4cccc5nc(C)ccc45)n2C)C3)cc1` (single isomer, unassigned) [Example 1 Enantiomer 1]: the “fpKi (D3) higher than the other Enantiomer” value (shortened to “fpKi”) is given as more than 1 log-unit.

For the molecule `Cc1ccc2c(-c3nnc(SCCCN4C[C@@H]5C[C@]5(c5ccc(Br)cc5)C4)n3C)cccc2n1` (single isomer, unassigned) [Example 2 Enantiomer 2], the “fpKi” value is more than 1 log-unit.

Take `Cc1ccc2c(-c3nnc(SCCCN4C[C@@H]5C[C@]5(c5ccccc5)C4)n3C)cccc2n1` (single isomer, unassigned) [Example 3 Enantiomer 2]: the “fpKi” value was more than 1 log-unit.

Turning to `Cc1ccc2c(-c3nnc(SCCCN4C[C@@H]5C[C@]5(c5ccc(Cl)c(Cl)c5)C4)n3C)cccc2n1` (single isomer, unassigned) [Example 4 Enantiomer 1], the “fpKi” value is on record as more than 0.6 log-unit.

Regarding `Cc1ccc2c(-c3nnc(SCCCN4C[C@@H]5C[C@]5(c5ccc(C(C)(C)C)cc5)C4)n3C)cccc2n1` (single isomer, unassigned) [Example 5 Enantiomer 2], the “fpKi” value is reported as more than 0.9 log-unit.

On to `Cc1ncoc1-c1nnc(SCCCN2C[C@@H]3C[C@]3(c3ccc(Br)cc3)C2)n1C` (single isomer, unassigned) [Example 9 Enantiomer 1], for which the “fpKi” value was more than 1 log-unit.

In the case of `Cc1ncoc1-c1nnc(SCCCN2C[C@@H]3C[C@]3(c3ccc(C(F)(F)F)cc3F)C2)n1C.Cl` (single isomer, unassigned) [Example 16 Enantiomer 2], the “fpKi” value was more than 1 log-unit.

For `Cc1ncoc1-c1nnc(SCCCN2C[C@@H]3C[C@]3(c3cccc(C(F)(F)F)c3)C2)n1C` (single isomer, unassigned) [Example 17 Enantiomer 1], the “fpKi” value is reported as more than 1 log-unit.

For the molecule `COc1ccc([C@]23C[C@H]2CN(CCCSc2nnc(-c4ocnc4C)n2C)C3)cc1C(C)=O` (single isomer, unassigned) [Example 19 Enantiomer 1], the “fpKi” value is reported as more than 1 log-unit.

For the molecule `Cc1ncoc1-c1nnc(SCCCN2C[C@@H]3C[C@]3(c3ccc(Cl)cc3)C2)n1C` (single isomer, unassigned) [Example 20 Enantiomer 1], the “fpKi” value is on record as more than 1 log-unit.

For the molecule `Cc1ncoc1-c1nnc(SCCCN2C[C@@H]3C[C@]3(c3ccc(F)cc3)C2)n1C` (single isomer, unassigned) [Example 21 Enantiomer 1], the “fpKi” value is reported as more than 1 log-unit.

Regarding `Cc1ncoc1-c1nnc(SCCCN2C[C@]3(C)C[C@@]3(c3cccc(Cl)c3)C2)n1C` (single isomer, unassigned) [Example 22 Enantiomer 1], the “fpKi” value is more than 1 log-unit.

In the case of `Cc1ncoc1-c1nnc(SCCCN2C[C@@H]3C[C@]3(c3cccc(F)c3)C2)n1C` (single isomer, unassigned) [Example 23 Enantiomer 1], the “fpKi” value was more than 1 log-unit.

`COc1cccc([C@]23C[C@H]2CN(CCCSc2nnc(-c4ocnc4C)n2C)C3)c1` (single isomer, unassigned) [Example 24 Enantiomer 1]: the “fpKi” value is reported as more than 1 log-unit.

As to `Cc1ncoc1-c1nnc(SCCCN2C[C@@H]3C[C@]3(c3ccc(OC(F)(F)F)cc3)C2)n1C` (single isomer, unassigned) [Example 30 Enantiomer 1], the “fpKi” value is given as more than 1 log-unit.

As for `Cc1ncoc1-c1nnc(SCCCN2C[C@@H]3C[C@]3(c3cc(C(F)(F)F)ccc3F)C2)n1C` (single isomer, unassigned) [Example 36 Enantiomer 2], the “fpKi” value was more than 1 log-unit.

As to `CCC(=O)c1cc([C@]23C[C@H]2CN(CCCSc2nnc(-c4ocnc4C)n2C)C3)ccc1OC` (single isomer, unassigned) [Example 71 Enantiomer 1], the “fpKi” value was more than 1 log-unit.

Take `Cc1nc2cc([C@]34C[C@H]3CN(CCCSc3nnc(-c5ocnc5C)n3C)C4)ccc2s1` (single isomer, unassigned) [Example 72 Enantiomer 1]: the “fpKi” value is more than 1 log-unit.

With `Cc1ncoc1-c1nnc(SCCCN2C[C@@H]3C[C@]3(c3ccc4c(cnn4C)c3)C2)n1C` (single isomer, unassigned) [Example 74 Enantiomer 1], the “fpKi” value is more than 1 log-unit.

With `Cc1ncoc1-c1nnc(SCCCN2C[C@@H]3C[C@]3(c3ccc(C(F)(F)F)cn3)C2)n1C` (single isomer, unassigned) [Example 96 Enantiomer 2], the “fpKi” value is on record as more than 1 log-unit.

As to `Cc1ccc2c(-c3nnc(SCCCN4CC5CC5(c5ccc(Cl)cc5)C4)n3C)cccc2n1` (single isomer, unassigned; enantiomer 1) [Example 29 Enantiomer 1], the “fpKi” value was more than 1 log-unit.

Turning to `Cc1ncoc1-c1nnc(SCCCN2C[C@@H]3C[C@]3(c3cc(F)cc(C(F)(F)F)c3)C2)n1C` (single isomer, unassigned; enantiomer 1) [Example 110 Enantiomer 1], the “fpKi” value is listed as more than 1 log-unit.

On to `Cc1ncoc1-c1nnc(SCCCN2C[C@@H]3C[C@]3(c3cccc(C(F)(F)F)c3F)C2)n1C` (single isomer, unassigned; enantiomer 2) [Example 111 Enantiomer 2], for which the “fpKi” value is more than 1 log-unit.
